The record followed here is a melting point compilation (Tetko et al.; mined from patent text by program, amines drawn as free bases though some values may be those of a salt).

In the case of `Cc1cc2c(cnn2-c2c(Cl)cc(C(F)(F)F)cc2Cl)nc1C`, the melting point is 135 to 136 °C. To `CN1CCN(C2=Nc3cc(Br)ccc3-n3ccc4cccc2c43)CC1` belongs 164 to 166 °C; to `COc1cc(NC(=O)Nc2ccc3c(c2)CCN(C(=O)Nc2ccc(OCCO)cc2Cl)C3)cc(OC)c1`, 105 to 110 °C. The figure for `CCCc1nc(S(=O)(=O)Nc2c(F)cccc2F)nn1-c1ccccc1` is 148 to 150 °C; for `CCCCCCCCc1cc2c(s1)NC(=O)CN=C2c1ccccc1Cl` it is 131 to 133 °C; for `Cc1cc(C)c(Nc2nc(C)ncc2S(=O)(=O)c2ccc(F)cc2)c(C)c1` it is 191 to 193 °C.

Consider `CCOC(=O)C=Cc1csc(Nc2ccccc2)n1`, for which the melting point is 113 to 118 °C. Compound `N#CCCNC(=O)c1cccc(-c2cccc3nn(Cc4cccc(F)c4)cc23)c1` gave a melting point of 170 to 171 °C. `CC(C)N(CCCN1C(=O)/C(=N/NC(N)=O)c2ccccc21)C(C)C` came in with a melting point of 173 to 175 °C. To `Cl/C(=C\c1ccc(Br)cc1)c1ccc(Cl)cc1` belongs 108 °C; to `COC(=O)C(=O)CC(=O)c1cc(F)c(OC)c(F)c1`, 185 to 190 °C; to `CC(=O)CN1CCNC1=Nc1c(Cl)cccc1Cl`, 84 to 86 °C. To `CCN(c1cc(Cl)ccc1C(=O)c1cnoc1C1CC1)S(C)(=O)=O` belongs 114 to 116 °C. To `O=C(N1CCC(n2c(=O)[nH]c3ncccc32)CC1)n1ccnc1` belongs 226 °C; to `CSc1ccc2ccc(N3C(=O)c4ccccc4C3=O)nc2n1`, 235 °C; to `COc1ccc(-c2cc(Cc3ccc(OC)c(OC4CCCC4)c3)cn2-c2ccc(S(N)(=O)=O)cc2)cc1`, 81 to 84 °C. In turn, `CNCC(=O)N(C)Cc1ccc(CCn2cnc3cc(-c4ccc(Cl)cc4)sc3c2=O)cc1` showed a melting point of 166 to 169 °C. To `CCc1nc2ccc(Cl)nc2n1Cc1ccc2oc(-c3ccccc3-c3nnn[nH]3)c(Br)c2c1` belongs 162 to 165 °C. Compound `Cc1ccccc1C(=O)c1cccn1C` came in with a melting point of 90 to 92.5 °C. `Cc1cc(S(=O)(=O)NCC(C)C)c2c(C)ccc(C(C)C)cc1-2` came in with a melting point of 117 to 118 °C. To `C#CCOc1ccc(S(=O)(=O)C2(C(=O)O)CCN(Cc3ccc(Cl)cc3)CC2)cc1` belongs 205 °C; to `CCNC(=O)c1c(Cl)cccc1[Si](C)(C)C`, 105 to 107 °C; to `CCCC(CCC)n1c(CC)nc2c1c(=O)n(C)c(=O)n2-c1ccc(Cl)cc1Cl`, 185 to 186 °C.

Compound `O=C(NCC12CC3CC(CC(C3)C1)C2)c1c(Cl)ccc2nc(N3CCC[C@@H](C(=O)O)C3)ccc12` came in with a melting point of 257 to 262 °C.

The compound `N#CCCNC(=O)Cc1c(C(=O)c2ccccc2)[nH]c2cc(Cl)ccc12` had a melting point of 233 to 234 °C.

`CC1=CC(=C=C2C(C#N)C(=C(C#N)C#N)OC2(C)C)C=C(C)N1c1ccccc1` (stereo unspecified) yielded a melting point of 290 °C. The figure for `CC(=O)OC(c1cccc(Cl)c1Cl)C(Cl)(Cl)C(F)(F)F` (stereo unspecified) is 92 to 95 °C; for `Cc1cc2n(n1)-c1ccc(Cl)cc1C(c1ccccc1)=NC2` it is 105 to 107 °C. The figure for `CC(O)C(C)Sc1cc(C(C)(C)C)c(O)c(C(C)(C)C)c1` (stereo unspecified) is 73 °C.

`CSc1nn(-c2c(Cl)cc(Cl)cc2Cl)c(N(C)C)c1CO` yielded a melting point of 108 to 110 °C. The figure for `CSc1nc(C)c(CCN2CC=C(c3c[nH]c4ccccc34)CC2)c(=O)n1C` is 245 to 246 °C; for `Cc1c(CO)nc2c(NC(=O)C(C)(C)C)cccn12` it is 186 to 187 °C; for `O=C1C=CC(O)(c2cc3cc(F)ccc3n2S(=O)(=O)c2ccccc2)C=C1` it is 166 to 167 °C.

`CCOC(=O)[C@@H]1C[C@H]([N+](=O)[O-])[C@@H](C(=O)O)[C@H](OC(CC)CC)[C@@H]1Sc1ccc(C)cc1` returned a melting point of 135 to 136 °C. Compound `CN1CCN(C2=C3CN(C)CC34CC(=CC#N)C=CC4=NC=C2)CC1` (stereo unspecified) displayed a melting point of 178 to 180 °C. The figure for `CCCCCCCCCCOc1ccc(OCc2ccccc2)c(C(=O)O)c1` is 63 to 65 °C; for `CC(C)(OCc1nn(Cc2ccccc2)c2ccccc12)C(=O)NO` it is 115 to 116 °C; for `COc1ccc(CON(Cc2ccccc2)S(C)(=O)=O)cc1` it is 85 to 87 °C.

Compound `CCOC(=O)Nc1ccc(OC)cc1[N+](=O)[O-]` came in with a melting point of 56 to 57 °C. To `CCOC(=O)c1cc2cc(Oc3ccc(S(C)(=O)=O)cc3)cc(O)c2[nH]1` belongs 197 to 198 °C. As to `O=C(Nc1ccc(-n2nc(C(F)(F)F)cc2C(F)(F)F)cc1)c1cccc([N+](=O)[O-])c1`, the melting point lay within 203 to 204 °C. The compound `OCc1cc(F)cc(Br)c1` had a melting point of 41 to 43 °C. The figure for `CCC[C@H]1C=C(C(=O)OCC)OC(=O)[C@H]1Cc1ccccc1` is 77 to 81 °C; for `CCOC(=NC(=O)OC)NC(=O)Nc1ccc(Cl)cc1Cl` it is 92 to 93 °C. The figure for `O=C1CC(NC(=O)C2CCCN3C(=O)CCC(NC(=O)c4ccccc4)C(=O)N23)C(OC2Cc3ccccc3C2)O1` (stereo unspecified) is 140 °C.

With `CCc1c(Sc2cc(C)cc(C)c2)[nH]c(=O)[nH]c1=O`, the melting point lay within 224 to 225 °C.

Compound `O=C(OCn1c(=O)[nH]cc(F)c1=O)c1cccnc1` came in with a melting point of 179 to 180 °C. The figure for `Cc1ccc(Oc2ccc(-c3ccn(CC4CC4)c(=O)c3Cl)cc2F)c(C)n1` is 143 °C; for `CCCCCCC#Cc1ccc(/C=C(/C(=O)O)C(=O)OCC)o1` it is 89 to 90 °C. To `CCN(C(C)=O)c1cccc(-c2ccnc3c(Cl)cnn23)c1` belongs 157 to 159 °C; to `Cc1ccc(C(=O)c2ccc3[nH]cc(C4CCN(C)CC4)c3c2)cc1`, 92 °C; to `Cc1cc(OCc2c(-c3c(Cl)cccc3Cl)noc2C(C)C)cnc1Oc1ccc(C(=O)O)cc1`, 74 to 76 °C. To `CCC(=O)NC[C@@H]1C[C@H]1c1cccc2nn(C)cc12` (relative stereo) belongs 79 to 80 °C. `COc1cc2ncc(C(=O)NCc3ccc(Cl)cc3)c(O)c2cc1OC` gave a melting point of 184 °C. To `CCOC(=O)Cn1c(=O)c(=O)[nH]c2cc(C(F)(F)F)c(-n3ccc(C=NOCc4ccccc4)c3)cc21` belongs 142 to 147 °C; to `CCCCCS(=O)(=O)c1cccc(-c2nc(=O)c3ccccc3s2)n1`, 160 to 161 °C. The figure for `CCOC(=O)C1=Cc2cc(C(=O)Cc3ccccc3)ccc2OC1C(F)(F)F` (stereo unspecified) is 136 to 138 °C; for `c1ccc(-c2ccc(-n3cccc3)cc2)cc1` it is 190 to 192 °C.

For `COC(=O)c1c(C)nc(-c2ccccc2)nc1-c1cccc(OC(F)F)c1`, the melting point lay within 62 to 63 °C. To `CC(C)c1cccc(C(C)C)c1NC(=O)CN[C@H](C)c1ccccc1` belongs 119 to 120 °C; to `Cc1cc(Cl)c([N+](=O)[O-])c(=O)[nH]1`, 225 °C; to `O=c1n(CO)c2ccccc2n1CO`, 157 to 161 °C. To `Cc1cccc2c1C(=O)N(C)Cc1c(-c3noc(C4CC4)n3)ncn1-2` belongs 200 °C; to `CC(c1ncnc(Cl)c1Cl)C(O)(Cn1cncn1)c1ccc(F)cc1F` (stereo unspecified), 124 °C. The figure for `CS(=O)c1cc(CCC(=O)OC(C)(C)C)nc(-c2nc(=O)c3ccccc3s2)c1` (stereo unspecified) is 160 °C; for `Cc1cc(I)cc2[nH]c(C(=O)O)cc(=O)c12` it is 294 °C; for `C[C@@H](Nc1ncnc2[nH]c(-c3ccc(CO)cc3)cc12)c1ccccc1` it is greater than 300 °C. The compound `CC1(C(=O)O)CCc2c(-c3ccc(Cl)cc3)noc2C1` (stereo unspecified) registered a melting point of 169 to 170 °C. The figure for `CON=C(C(C)=C(ON)c1ccccc1C(=NOC)C(=O)OC)c1ccc(F)cc1F` is 110 to 119 °C.

Regarding `Nc1c(F)c(N2CCC(C(N)c3ccccn3)C2)c(F)c2c1c(=O)c(C(=O)O)cn2C1CC1F` (stereo unspecified), the melting point was 178 to 180 °C. To `COc1ccc(-c2cc3ccc(C(=O)O)cc3o2)cc1C12CC3CC(CC(C3)C1)C2` belongs 290 °C; to `COCCCOc1cc(CBr)ccc1OC`, 50 to 51 °C; to `CCOC(=O)c1nc2n(n1)-c1ccc(Cl)cc1C(c1ccccc1)=NC2`, 137 to 138 °C. `Cc1cc(C(C)(C)C)c(O)c(P(=O)(c2ccccc2)C2c3ccccc3-c3ccccc32)c1` (stereo unspecified): the melting point was 237 to 240 °C. The figure for `COc1ccc(-c2csc(Nc3ccc(C(F)(F)F)cn3)n2)cc1OC` is 244 to 247 °C. The figure for `O=C(Nc1cc(C(F)(F)F)on1)C(Cl)(Cl)Cl` is 114 °C; for `O=C(OCCS(=O)(=O)CCCOCCc1ccccc1)c1ccccc1` it is 65.5 °C; for `CCCCOC(=O)S(=O)(=O)Nc1sc(CC(C)C)cc1-c1ccc(Cn2c(-c3ccccc3)nc(OC)c2C=O)c(Cl)c1` it is 58 °C.

Regarding `O=c1cc2c(nn1-c1ccccc1)-c1cc(Cl)ccc1CC2`, the melting point is 184 to 186 °C. The figure for `Cc1ccc(-c2nc(COc3ccc(CCCn4ccnc4)cc3Cl)co2)s1` is 95 to 96 °C; for `CCOC(=O)/C=C/c1ccc(OCC2CCCO2)cc1Oc1ncc(C(F)(F)F)cc1Cl` (stereo unspecified) it is 84 to 86 °C.

Turning to `CC(C)[C@H](NC(=O)Cc1cc(F)cc(F)c1)C(=O)N[C@@H]1C(=O)Nc2ccccc2S[C@@H]1c1ccccc1`, the melting point lay within 110 to 115 °C.

`CCS(=O)c1cc2c(cc1OC)CCn1c-2cc2c1C(=O)N(C(C)(C)C)CCCC2` (stereo unspecified) registered a melting point of 185 to 187 °C. To `COC(=O)OC1C(OCc2ccccc2)C(COCc2ccccc2)OC(C)(OCc2ccccc2)C1NC(C)=O` (stereo unspecified) belongs 116 to 118 °C; to `COc1ccc(CCNC(=O)C(=O)NCCCCCCNC(=O)OC(C)(C)C)cc1OC1CCCC1`, 135 to 137 °C; to `CC1=C(c2ccccc2)C(=O)N(C(C)(C)c2ccccc2)CC1`, 108 to 109 °C.

By melting point is commonly meant the temperature of the solid-liquid transition.
